Where “and” joins values, the source holds several entries; their conditions need not be identical. Equal values may be shown once. Where a name gives a salt, the structure may show the parent alone. Read-outs that look alike come from different tables or passages of the source.
Assays:
[1] = test system: β2-receptor; test: Separation of bronchial resistance effect from heart rate effect (β2 selectivity), anesthetized dogs; type: in vivo, dog (male hybrid adult dogs); settings: i.v.
Description: (§1) The stimulating activity of the compounds of this invention on β-adrenoreceptor was determined as follows: Male hydrid adult dogs, weighing 10 to 15 kg, were anesthesized with sodium pentobartital administered intravenously at a level of 30 mg/kg of body weight. Each of the anesthesized dogs was secured on its back and a cannula was inserted into the trachea. Artificial respiration was conducted using a device according to the Konzett-Rossler method (Konzett H. & Rossler R., "Versuchsanordnug zu Untersuchungen an der Bronchial Moskolatur", Arch. Exp. Path., Pharmack, 195, 71-74, 27-40 (1940). The volume of the air which overflowed at the time of inhalation was measured through a pneumotachometer to determine the bronchial resistance and the values obtained were recorded on a polygraph.
(§2) In the above procedure, histamine was employed as a bronchoconstrictor at a dosage level of 10 μg/kg of body weight, and an aqueous solution containing each of the test compounds and controls shown in Table 1 below was then administered to each of the anesthesized dogs through the femoral vein at the various dosage levels as shown in Table 1 below 1 minute before the administration of the histamine. Sodium pentobartital was infused during the procedure at a dosage level of 4 mg/kg of body weight/hr using an automatic injector in order to inhibit spontaneous respiration and to maintain the anesthetic condition constant over the test period.
(§3) ED50 values were calculated using a Dose Response curve. At the same time the pulse was measured through a transducer and the value was recorded on a polygraph.

[2] = test system: β-adrenoreceptor; test: Persistence (duration) of inhibition of histamine-induced bronchospasm, anesthetized dogs; type: in vivo, dog; settings: FIGURE, i.v. 1 μg/kg, versus Compound (2)
Description: as §1, with “[…],” for “Pharmack,”, “polygraph. […] Sodium pentobartital was infused during the procedure at a dosage level of 4 mg/kg of body weight/hr using an automatic injector in order to inhibit spontaneous respiration and to maintain the anesthetic condition constant over the test period. The persistance time was determined by administering to a subject a test compound in such a dose that a histamine-induced bronchospasm is inhibited completely (100%), in the same manner as described above and observing the persistance of the activity of the test compound with the lapse of time.” for “polygraph.”

[3] = Acute toxicity by intravenous administration; settings: rat, in vivo, i.v., male rats (dd strain, 18 to 22 g), fasted 12 hours, read-out: LD50 (50% lethal dose)
Description: Further, the acute toxicity by intravenous administration was determined with respect to the test compounds shown in Table 2 below using 5 to 6 groups each containing 10 male rats (dd strain; body weight: 18 to 22 g) which had been fasted for 12 hours prior to the test. The LD50 (50% lethal dose) results are as follows.

[4] = target: T1, β-adrenoreceptor (Canis lupus familiaris, UniProt P54833); test: Inhibition of histamine-induced bronchial resistance increase (bronchospasm), i.v., Konzett-Rossler method, anesthetized dogs; type: in vivo, dog (male hybrid adult dogs); settings: for Bronchial Resistance (BR) Relative Potency: ED50 compared to isoproterenol as standard compound; for ED50: dog, iv
T1 construct: from tissue; host or cells: airways of anesthetized dogs, in vivo
Description: (§4) The stimulating activity of the compounds of this invention on β-adrenoreceptor was determined as follows: Male hydrid adult dogs, weighing 10 to 15 kg, were anesthesized with sodium pentobartital administered intravenously at a level of 30 mg/kg of body weight. Each of the anesthesized dogs was secured on its back and a cannula was inserted into the trachea.
as §2, §3

[5] = test system: β-adrenoreceptor; test: Heart rate (pulse) increase, i.v., anesthetized dogs; type: in vivo, dog (male hybrid adult dogs); settings: for Heart Rate (HR) ED25 beats/min, Compound: pulse increase; for Heart Rate (HR) Relative Potency: ED25 compared to isoproterenol as standard compound
Description: as §4, §2, §3

[6] = read-out: Bronchial Resistance (BR) ED50, Compound
[7] = i.v. 1 minute before histamine 10 μg/kg, anesthetized dogs, read-out: Bronchial Resistance (BR) ED50, Compound

T1 sequence (P54833 whole entry): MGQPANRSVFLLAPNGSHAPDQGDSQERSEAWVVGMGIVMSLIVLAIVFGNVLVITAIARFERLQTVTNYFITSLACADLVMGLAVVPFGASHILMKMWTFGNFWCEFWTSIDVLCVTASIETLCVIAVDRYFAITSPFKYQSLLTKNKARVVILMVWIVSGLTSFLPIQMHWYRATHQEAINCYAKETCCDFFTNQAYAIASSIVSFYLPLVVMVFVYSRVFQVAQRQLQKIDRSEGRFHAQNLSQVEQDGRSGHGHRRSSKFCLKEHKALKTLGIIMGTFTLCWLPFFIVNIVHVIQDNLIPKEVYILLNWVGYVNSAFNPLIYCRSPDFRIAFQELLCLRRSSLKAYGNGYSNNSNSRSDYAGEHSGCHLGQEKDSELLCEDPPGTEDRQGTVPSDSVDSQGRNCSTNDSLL

Structure (SMILES)	Separation Ratio HR(Relative Potency)/BR(Relative Potency) [1]	duration of β-stimulation activity on histamine-induced bronchospasm [2]	LD50 [3]	Bronchial Resistance (BR) Relative Potency [4]	ED50 [4, 6]	Heart Rate (HR) ED25 beats/min, Compound ([5]; i.v., anesthetized dogs)	Heart Rate (HR) Relative Potency [5]	ED50 [4, 7]	ED50 ([4]; read-out: Bronchial Resistance (BR) ED50, Isoproterenol, isoproterenol as standard compound for the compound of the same line, i.v., anesthetized dogs)	Heart Rate (HR) ED25 beats/min, Isoproterenol ([5]; isoproterenol as standard compound for the compound of the same line, i.v., anesthetized dogs)	Bronchial Resistance (BR) ED50, Compound ([4]; i.v. 1 minute before histamine 10 μg/kg, anesthetized dogs)
CCC(NC(C)C)C(OC(C)=O)c1ccc(OC(C)=O)c2[nH]c(=O)ccc12.Cl (stereo not shown) [(3), 8-acetoxy-5-(1-acetoxy-2-isopropylaminobutyl)carbostyril hydrochloride]	11.0	exhibit a long-lasting β-stimulation activity on histamine-induced bronchospasm as compared with that of the comparative compound	112 mg/kg	5.85	0.82 µg/kg	4.5 µg/kg	64.4	–	–	–	–
CCNC(CC)C(O)c1ccc(OC(C)=O)c2[nH]c(=O)ccc12.Cl (stereo not shown) [(4), 8-acetoxy-5-(1-hydroxy-2-ethylaminobutyl)carbostyril hydrochloride]	11.8	exhibit a long-lasting β-stimulation activity on histamine-induced bronchospasm as compared with that of the comparative compound	105 mg/kg	3.81	0.61 µg/kg	3.6 µg/kg	45.0	–	–	–	–
CCNC(CC)C(O)c1ccc(OC(=O)CC(C)C2CCCCC2)c2[nH]c(=O)ccc12.Cl (stereo not shown) [(5), 8-(3-cyclohexylbutyryloxy)-5-(1-hydroxy-2-ethylaminobutyl)carbostyril hydrochloride]	12.7	–	–	5.15	0.67 µg/kg	6.5 µg/kg	65.4	–	–	–	–
CCC(NC(C)C)C(O)c1ccc(OC(=O)CC(C)(C)C)c2[nH]c(=O)ccc12 (stereo not shown) [(6)]	13.1	–	107 mg/kg	3.52	–	3.2 µg/kg	46.1	0.42 µg/kg	–	–	–
CCC(NC(C)C)C(O)c1ccc(OC(=O)Cc2ccccc2)c2[nH]c(=O)ccc12.Cl (stereo not shown) [(7), 8-phenylacetoxy-5-(1-hydroxy-2-isopropylaminobutyl)carbostyril hydrochloride]	–	–	–	–	0.17 µg/kg	1.39 µg/kg	–	–	–	–	–
COc1ccc(CCNCC(OC(=O)C2CC2)c2ccc(OC(=O)C3CC3)c3[nH]c(=O)ccc23)cc1OC (stereo not shown) [(8), 8-cyclopropylcarbonyloxy)-5-[1-cyclopropylcarbonyloxy-2-(3,4-dimethoxyphenethylamino)ethyl]carbostyril hydrochloride]	14.8	–	123 mg/kg	4.64	–	4.81 µg/kg	68.7	0.51 µg/kg	–	–	–
CCNC(CC)C(O)c1ccc(OC(=O)c2ccc(C)cc2)c2[nH]c(=O)ccc12.Cl (stereo not shown) [(9), 8-(4-methylbenzoyloxy)-5-(1-hydroxy-2-ethylaminobutyl)carbostyril hydrochloride]	14.5	–	132 mg/kg	1.06	0.16 µg/kg	1.7 µg/kg	15.5	–	–	–	–
CCC(NC(C)C)C(O)c1ccc(OC(=O)C(C)C)c2nc(OC(=O)C(C)C)ccc12.Cl (stereo not shown) [(10), 2,8-diisobutyryloxy-5-(1-hydroxy-2-isopropylaminobutyl)quinoline hydrochloride]	9.5	exhibit a long-lasting β-stimulation activity on histamine-induced bronchospasm as compared with that of the comparative compound	–	5.94	0.95 µg/kg	5.6 µg/kg	56.4	–	–	–	–
CCC(NCc1ccccc1)C(O)c1ccc(OC(=O)c2ccc(Cl)cc2)c2[nH]c(=O)ccc12.Cl (stereo not shown) [(11), 8-(4-chlorobenzoyloxy)-5-(1-hydroxy-2-benzylaminobutyl)carbostyril hydrochloride]	7.2	–	–	6.50	0.91 µg/kg	4.2 µg/kg	46.7	–	–	–	–
CCC(NC(C)C)C(OC(=O)c1ccc(C)cc1)c1ccc(OC(=O)c2ccc(C)cc2)c2c1CCC(=O)N2 (stereo not shown) [(12), 8-(4-methylbenzoyloxy)-5-[(1-(4-methylbenzoyloxy)-2-isopropylaminobutyl]-3,4-dihydrocarbostyril hydrochloride]	10.3	–	153 mg/kg	7.30	–	8.3 µg/kg	75.5	0.73 µg/kg	–	–	–
CCC(NC(C)C)C(OC(=O)C1CCCCC1)c1ccc(OC(=O)c2ccc(C)cc2)c2[nH]c(=O)ccc12.Cl (stereo not shown) [(13), 8-(4-methylbenzoyloxy)-5-(1-cyclohexylcarbonyloxy-2-isopropylaminobutyl)carbostyril hydrochloride]	11.3	–	147 mg/kg	5.92	0.71 µg/kg	6.02 µg/kg	66.9	–	–	–	–
CC(C)C(=O)Oc1ccc(C(O)C(C)NC(C)(C)C)c2ccc(=O)[nH]c12 (stereo not shown) [(14), 8-isobutyryloxy-5-(1-hydroxy-2-tert-butylaminopropyl)carbostyril]	12.3	–	–	3.92	–	3.86 µg/kg	48.3	0.47 µg/kg	–	–	–
CCNC(CC)C(O)c1ccc(O)c2[nH]c(=O)ccc12.Cl (stereo not shown) [Compound (2), 8-hydroxy-5-(1-hydroxy-2-ethylaminobutyl)carbostyril hydrochloride, reference compound]	11.5	–	–	3.47	0.66 µg/kg	3.6 µg/kg	40.0	–	–	–	–
CC(C)NCC(O)c1ccc(O)c(O)c1 (stereo not shown) [Isoproterenol, reference compound]	–	–	–	–	–	–	–	–	0.19 µg/kg	0.07 µg/kg and 0.10 µg/kg	–
CC(C)(C)NCC(O)c1ccc(O)c(CO)c1 (stereo not shown) [Salubutamol (1), Salbutamol, reference compound]	7.52	–	–	6.1	–	2.8 µg/kg	45.9	–	–	–	0.52 µg/kg

Reference: patent US4223137A, “Carbostyril derivatives and process for preparing the same” (Otsuka Pharmaceutical Co., Ltd., priority 1976, dated 1980)
